Assay results: ChEMBL document CHEMBL5649169 (ChemMedChem, 2018)

Key:
[1] = target: Small ribosomal subunit protein eS1 (Homo sapiens) (UniProt P61247)
[2] = target: Sorting nexin-9 (Homo sapiens) (UniProt Q9Y5X1)
[3] = species on record: Homo sapiens
[4] = target: Complement component 1 Q subcomponent-binding protein, mitochondrial (Homo sapiens) (UniProt Q07021)
[5] = species on record: Homo sapiens; remark: listed apart in the source
[6] = target: Stearoyl-CoA desaturase (Homo sapiens) (UniProt O00767)
Chain of Stearoyl-CoA desaturase (Homo sapiens) (O00767 whole entry): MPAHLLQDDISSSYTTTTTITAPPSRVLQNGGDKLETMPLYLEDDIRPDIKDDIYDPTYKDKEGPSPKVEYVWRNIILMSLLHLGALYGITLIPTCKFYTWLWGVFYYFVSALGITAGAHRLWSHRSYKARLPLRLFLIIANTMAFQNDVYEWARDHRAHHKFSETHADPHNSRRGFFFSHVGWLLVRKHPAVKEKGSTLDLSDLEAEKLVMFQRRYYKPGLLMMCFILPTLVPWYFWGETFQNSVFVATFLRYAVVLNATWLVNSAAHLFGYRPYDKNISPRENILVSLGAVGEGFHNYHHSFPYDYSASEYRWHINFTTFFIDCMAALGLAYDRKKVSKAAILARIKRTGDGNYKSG

[7] = target: Syndecan-2 (Homo sapiens) (UniProt P34741)
Chain of Syndecan-2 (Homo sapiens) (P34741 whole entry): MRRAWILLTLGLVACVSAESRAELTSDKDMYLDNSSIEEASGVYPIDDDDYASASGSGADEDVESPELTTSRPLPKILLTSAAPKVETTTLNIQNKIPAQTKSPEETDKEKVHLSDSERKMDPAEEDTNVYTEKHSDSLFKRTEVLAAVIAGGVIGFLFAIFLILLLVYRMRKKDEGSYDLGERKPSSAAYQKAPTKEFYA

[8] = target: Tubulin alpha-4A chain (Homo sapiens) (UniProt P68366)
Chain of Tubulin alpha-4A chain (Homo sapiens) (P68366 whole entry, looked up): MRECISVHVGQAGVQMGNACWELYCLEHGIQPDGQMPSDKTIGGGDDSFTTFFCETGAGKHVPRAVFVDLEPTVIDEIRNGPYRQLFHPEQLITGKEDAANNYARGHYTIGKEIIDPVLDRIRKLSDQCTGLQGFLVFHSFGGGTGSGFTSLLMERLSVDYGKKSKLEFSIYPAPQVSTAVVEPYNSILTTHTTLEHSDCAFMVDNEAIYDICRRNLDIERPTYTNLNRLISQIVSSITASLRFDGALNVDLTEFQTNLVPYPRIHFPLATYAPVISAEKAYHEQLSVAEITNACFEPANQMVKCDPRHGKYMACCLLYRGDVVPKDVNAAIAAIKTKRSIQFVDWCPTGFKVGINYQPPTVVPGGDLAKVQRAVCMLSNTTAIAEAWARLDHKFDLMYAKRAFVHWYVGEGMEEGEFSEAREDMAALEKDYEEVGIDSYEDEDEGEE

[9] = target: Dual specificity testis-specific protein kinase 1 (Homo sapiens) (UniProt Q15569)
Chain of Dual specificity testis-specific protein kinase 1 (Homo sapiens) (Q15569 whole entry, looked up): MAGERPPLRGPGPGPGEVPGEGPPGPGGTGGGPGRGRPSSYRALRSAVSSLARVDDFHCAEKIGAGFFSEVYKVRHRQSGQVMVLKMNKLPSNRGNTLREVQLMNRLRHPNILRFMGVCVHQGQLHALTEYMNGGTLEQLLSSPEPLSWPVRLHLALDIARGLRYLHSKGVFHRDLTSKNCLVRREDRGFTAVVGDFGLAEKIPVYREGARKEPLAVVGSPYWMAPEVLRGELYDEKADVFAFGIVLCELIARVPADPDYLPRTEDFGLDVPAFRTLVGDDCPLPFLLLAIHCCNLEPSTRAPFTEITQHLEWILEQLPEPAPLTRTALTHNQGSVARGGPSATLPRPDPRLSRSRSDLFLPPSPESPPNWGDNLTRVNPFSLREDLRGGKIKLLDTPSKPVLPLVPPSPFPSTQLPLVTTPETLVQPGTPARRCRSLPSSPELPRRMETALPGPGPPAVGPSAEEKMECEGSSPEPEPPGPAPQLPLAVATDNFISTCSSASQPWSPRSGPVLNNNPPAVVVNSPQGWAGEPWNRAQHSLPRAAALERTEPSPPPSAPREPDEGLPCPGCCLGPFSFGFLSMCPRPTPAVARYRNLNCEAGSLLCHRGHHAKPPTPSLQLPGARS

[10] = target: DnaJ homolog subfamily C member 9 (Homo sapiens) (UniProt Q8WXX5)
Chain of DnaJ homolog subfamily C member 9 (Homo sapiens) (Q8WXX5 whole entry): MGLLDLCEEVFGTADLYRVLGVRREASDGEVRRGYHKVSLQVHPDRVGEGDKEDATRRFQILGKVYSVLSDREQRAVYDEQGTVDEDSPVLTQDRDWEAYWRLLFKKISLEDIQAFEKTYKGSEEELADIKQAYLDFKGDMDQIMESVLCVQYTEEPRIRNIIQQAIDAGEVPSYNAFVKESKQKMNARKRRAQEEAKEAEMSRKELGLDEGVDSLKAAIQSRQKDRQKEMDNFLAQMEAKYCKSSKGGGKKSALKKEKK

[11] = target: Trifunctional purine biosynthetic protein adenosine-3 (Homo sapiens) (UniProt P22102)
Chain of Trifunctional purine biosynthetic protein adenosine-3 (Homo sapiens) (P22102 whole entry): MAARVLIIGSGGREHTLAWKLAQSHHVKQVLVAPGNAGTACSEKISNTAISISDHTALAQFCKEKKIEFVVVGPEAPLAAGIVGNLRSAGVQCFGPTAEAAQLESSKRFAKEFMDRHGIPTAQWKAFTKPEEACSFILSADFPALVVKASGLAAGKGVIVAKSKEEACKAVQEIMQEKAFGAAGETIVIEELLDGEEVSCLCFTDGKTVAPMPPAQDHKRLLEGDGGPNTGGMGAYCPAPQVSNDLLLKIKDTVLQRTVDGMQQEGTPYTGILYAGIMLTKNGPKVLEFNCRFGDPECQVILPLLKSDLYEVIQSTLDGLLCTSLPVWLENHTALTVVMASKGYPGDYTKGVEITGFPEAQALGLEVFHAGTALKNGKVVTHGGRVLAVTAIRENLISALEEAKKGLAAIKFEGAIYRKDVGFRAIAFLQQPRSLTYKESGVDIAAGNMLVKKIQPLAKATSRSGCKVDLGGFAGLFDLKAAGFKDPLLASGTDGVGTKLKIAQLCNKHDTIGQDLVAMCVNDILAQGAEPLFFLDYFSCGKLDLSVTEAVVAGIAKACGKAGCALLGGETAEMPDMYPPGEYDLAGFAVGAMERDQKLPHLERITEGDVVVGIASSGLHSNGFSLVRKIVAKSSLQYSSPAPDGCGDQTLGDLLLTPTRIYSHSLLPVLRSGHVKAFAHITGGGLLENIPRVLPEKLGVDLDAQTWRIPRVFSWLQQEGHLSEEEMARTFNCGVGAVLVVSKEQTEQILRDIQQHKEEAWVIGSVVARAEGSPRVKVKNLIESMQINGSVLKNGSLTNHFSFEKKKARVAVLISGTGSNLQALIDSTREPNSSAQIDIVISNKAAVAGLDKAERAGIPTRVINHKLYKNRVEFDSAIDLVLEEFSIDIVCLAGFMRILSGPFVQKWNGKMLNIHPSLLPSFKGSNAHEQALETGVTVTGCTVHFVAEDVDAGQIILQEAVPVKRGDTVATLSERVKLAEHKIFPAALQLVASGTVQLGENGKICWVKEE
Further: assay method not described here.

Chain of Complement component 1 Q subcomponent-binding protein, mitochondrial (Homo sapiens) (Q07021 whole entry): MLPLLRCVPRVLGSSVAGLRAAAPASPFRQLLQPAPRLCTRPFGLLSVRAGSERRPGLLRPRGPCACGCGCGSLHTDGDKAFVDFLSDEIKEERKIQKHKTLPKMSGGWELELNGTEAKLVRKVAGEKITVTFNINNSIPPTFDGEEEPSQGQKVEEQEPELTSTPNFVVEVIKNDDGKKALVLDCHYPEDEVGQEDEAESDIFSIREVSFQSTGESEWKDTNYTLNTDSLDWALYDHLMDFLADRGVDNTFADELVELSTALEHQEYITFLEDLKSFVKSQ
Chain of Sorting nexin-9 (Homo sapiens) (Q9Y5X1 whole entry): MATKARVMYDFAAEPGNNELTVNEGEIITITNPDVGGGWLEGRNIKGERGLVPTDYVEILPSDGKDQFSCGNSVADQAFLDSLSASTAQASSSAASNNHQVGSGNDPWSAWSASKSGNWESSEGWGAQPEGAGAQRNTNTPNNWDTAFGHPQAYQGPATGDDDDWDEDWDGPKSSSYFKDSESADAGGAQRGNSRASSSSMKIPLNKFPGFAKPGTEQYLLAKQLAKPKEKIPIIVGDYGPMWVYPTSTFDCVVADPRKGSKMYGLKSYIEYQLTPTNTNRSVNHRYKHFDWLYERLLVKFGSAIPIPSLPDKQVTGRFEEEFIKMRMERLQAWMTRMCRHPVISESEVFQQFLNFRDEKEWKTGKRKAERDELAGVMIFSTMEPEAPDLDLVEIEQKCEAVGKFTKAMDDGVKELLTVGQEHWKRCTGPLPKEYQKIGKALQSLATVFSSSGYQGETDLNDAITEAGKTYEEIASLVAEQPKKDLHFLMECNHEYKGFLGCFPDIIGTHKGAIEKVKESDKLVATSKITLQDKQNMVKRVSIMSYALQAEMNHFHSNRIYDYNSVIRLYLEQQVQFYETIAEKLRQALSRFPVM

Row | SMILES | ED50 [1] [µM] | ED50 [2] [µM] | ED50 [3] [µM] | ED50 [4] [µM] | ED50 [5] [µM] | ED50 [6] [µM] | ED50 [7] [µM] | ED50 [8] [µM] | ED50 [9] [µM] | ED50 [10] [µM] | ED50 [11] [µM]
1 | Cc1ccc(C(=O)Nc2cccc(C(F)(F)F)c2)cc1Nc1nc(-c2cccnc2)nc2c1cnn2C | 2.45 | 0.494 | 0.723 | 0.0348 | 0.887 | 0.00465 | 13.6 | 0.0122 | 0.000117 | 8.8 | 
2 | Cc1ccc(C(=O)Nc2cccc(C(F)(F)F)c2)cc1Nc1nc(-c2cccnc2)nc2nn(C)cc12 |  |  |  |  |  |  |  |  |  |  | 0.136
